From patent publication US8952055B2 (priority 2008, dated 2015)
Like-named read-outs stand apart in the source and are kept apart here.

How the values were obtained:
[1] = system: influenza viruses (A/PR8/34/H1N1); test: microbe, parasite or virus in culture; settings: H1N1|PR8, MDCK, read-out: EC50 Antiviral effect (50% effective concentration), viral infectivity-inhibiting effect
[2] = system: influenza viruses (A/PR8/34/H1N1); test: microbe, parasite or virus in culture; settings: H1N1|PR8, MDCK, read-out: EC50 Antiviral effect (50% effective concentration), viral infection-preventing effect
[3] = system: influenza viruses (A/PR8/34/H1N1); settings: for EC50: read-out: EC50 Antiviral effect (50% effective concentration), viral infectivity-inhibiting effect
[4] = system: influenza viruses (A/PR8/34/H1N1); settings: for EC50: read-out: EC50 Antiviral effect (50% effective concentration), viral infection-preventing effect
[5] = system: canine kidney cultured cells (MDCK); settings: read-out: CC50 Cytotoxicity (50% cytotoxic concentration); Table 3
[6] = system: influenza viruses (A/PR8/34/H1N1); test: Hemagglutination assay with chicken erythrocytes; format: cell-based, influenza virus; settings: final concentrations 0 to 16 μmol/l, FIG. 3

SMILES | EC50 [1] [µM] | EC50 [2] [µM] | SI Selectivity (Selective Index = CC50/EC50) ([3]; Table 4, viral infectivity-inhibiting effect) | EC50 ([3]; Table 4, sample incubated with A/PR8/34/H1N1 for 30 minutes before application to MDCK cells) [µM] | EC50 ([3]; Table 6, Example 3, comparison with zanamivir and oseltamivir phosphate) [µM] | SI Selectivity (Selective Index = CC50/EC50) ([4]; Table 3, viral infection-preventing effect) | EC50 [4] [µM] | EC50 ([4]; Table 5, Example 3, comparison with zanamivir and oseltamivir phosphate) [µM] | CC50 [5] [µM] | suppression of agglutination of the erythrocytes [6]
CCOC(=O)C1=C[C@@H](OC(CC)CC)[C@H](NC(C)=O)[C@@H](N)C1 [oseltamivir phosphate] | 56.2 | 58.2 | – | – | – | – | – | – | – | –
CC(=O)N[C@H]1[C@H]([C@H](O)[C@H](O)CO)OC(C(=O)O)=C[C@@H]1N=C(N)N [zanamivir] | 6.3 | 38 | – | – | – | – | – | – | – | –
O=C(O[C@@H]1Cc2c(O)cc(O)cc2O[C@@H]1c1cc(O)c(O)c(O)c1)c1cc(O)c(O)c(O)c1 [EGCG, epigallocatechin gallate] | – | – | 703 | 0.391 | 0.391 | 2.91 | 94.6 | 94.7 | 276 | not observed
